Experimental data: patent US20110105554A1, “MEANS FOR TREATING MYOSIN-RELATED DISEASES” (KINARIS BIOMEDICALS GMBH, priority 2007, published 2011)
Entries after “also recorded” stand apart in the source; their conditions may differ.

Key:
myosin-1 isoforms = assay: Selectivity for myosin isoforms (Example 3), myosin-1; assay type: biochemical
From the text: In this context, preferred selectivity means a more than 20-fold smaller IC50 value compared to fast skeletal muscle myosin-2 and other references myosins.

Dictyostelium myosin-5b = target: T1, Dictyostelium myosin-5b (Dictyostelium discoideum, UniProt P54697); assay: Basal ATPase activity, Dictyostelium myosin-5b; assay type: biochemical; details: read-out: concentration required for half-maximal inhibition of basal ATPase activity
T1 construct: comprising amino acids 1-698, 1-765, and 1-839 respectively; made in house
From the text: (§1) FIG. 18: KIN-68-inhibition of the basal ATPase activity of Dictyostelium myosin-1E and myosin-5b.

Dictyostelium myosin-1E = target: T2, Dictyostelium myosin-1E (Dictyostelium discoideum, UniProt Q03479); assay: Basal ATPase activity, Dictyostelium myosin-1E; assay type: biochemical; details: read-out: concentration required for half-maximal inhibition of basal ATPase activity
T2 construct: comprising amino acids 1-698, 1-765, and 1-839 respectively; made in house
From the text: as §1

Plasmodium merozoites = assay: In vitro growth assay, blood stages of malaria; assay type: cell-based; details: 25 μM
[1] = Development toxicity testing on medaka embryos; details: medaka, in vivo
Protocol: (§2) (a) KIN-43 in concentrations between 0.5 μM and 100 μM were incubated for 48 h with 20 medaka embryos per concentration. […] (b) Light microscopy image of embryo after 48 h in the absence of KIN-43.
(§3) We are using a library of common organic molecules and functional groups and are applying an empirical force field description of the nonbonding interactions between a ligand and the binding site in order to build up de novo compounds with spatial and electrostatic properties complementary to the allosteric binding site.

medaka embryos = assay: Development toxicity testing on medaka embryos
Protocol: as §2, §3

in vitro = details: human
Protocol: (§4) Cytotoxicity may be assayed by determining the cellular uptake of neutral red. Only living cells are capable of neutral red uptake via an active transport mechanism. For an exemplary workflow of a cytotoxicity assay, see FIG. 16.
(§5) FIG. 16: Cytotoxicity assay.
(§6) FIG. 22: Cytotoxic testing of KIN-compounds by neutral red uptake assays. (a) human hepatocyte carcinoma cells (Hep G2) were exposed to KIN-43 for 4 h in the in presence of 1% FBS.
as §3

[2] = system: human hepatocyte carcinoma cells (Hep G2); assay: in vitro
Protocol: as §4, §5, §6, §3

Plasmodium sporozoites = assay: Plasmodium sporozoite motility (in vitro imaging); assay type: cell-based
From the text: FIG. 20: (a) Plasmodium sporozoites adopt motility states, shown in the photos from the left to the right, attached, waving, clockwise (CW), and counterclockwise (CCW). In the absence of inhibitors sporozoites preferably move CW and CCW at 0.97 μm/s and 1.13 μm/s.
Plasmodium sporozoites are moving at very low speed in the salivary glands of infected mosquitoes but are moving at high speed (2 μm/s) upon transmission into the vertebrate host. […] We followed single parasites using in vitro imaging approaches in combination with our bioactive compounds and discovered some intriguing features of sporozoite motility. Under normal conditions sporozoites move in circles, either counterclockwise or clockwise. Two other states of attachment and waving are less populated.

Dictyostelium myosin-2 [3] = target: T3, Dictyostelium myosin-2 (Dictyostelium discoideum, UniProt P08799, C312Y/S249N); assay: Basal ATPase activity, Dictyostelium myosin-2; assay type: biochemical
T3 construct: comprising amino acids 1-698, 1-765, and 1-839 respectively; made in house
T3 sequence (P08799 1-765 S249N/C312Y): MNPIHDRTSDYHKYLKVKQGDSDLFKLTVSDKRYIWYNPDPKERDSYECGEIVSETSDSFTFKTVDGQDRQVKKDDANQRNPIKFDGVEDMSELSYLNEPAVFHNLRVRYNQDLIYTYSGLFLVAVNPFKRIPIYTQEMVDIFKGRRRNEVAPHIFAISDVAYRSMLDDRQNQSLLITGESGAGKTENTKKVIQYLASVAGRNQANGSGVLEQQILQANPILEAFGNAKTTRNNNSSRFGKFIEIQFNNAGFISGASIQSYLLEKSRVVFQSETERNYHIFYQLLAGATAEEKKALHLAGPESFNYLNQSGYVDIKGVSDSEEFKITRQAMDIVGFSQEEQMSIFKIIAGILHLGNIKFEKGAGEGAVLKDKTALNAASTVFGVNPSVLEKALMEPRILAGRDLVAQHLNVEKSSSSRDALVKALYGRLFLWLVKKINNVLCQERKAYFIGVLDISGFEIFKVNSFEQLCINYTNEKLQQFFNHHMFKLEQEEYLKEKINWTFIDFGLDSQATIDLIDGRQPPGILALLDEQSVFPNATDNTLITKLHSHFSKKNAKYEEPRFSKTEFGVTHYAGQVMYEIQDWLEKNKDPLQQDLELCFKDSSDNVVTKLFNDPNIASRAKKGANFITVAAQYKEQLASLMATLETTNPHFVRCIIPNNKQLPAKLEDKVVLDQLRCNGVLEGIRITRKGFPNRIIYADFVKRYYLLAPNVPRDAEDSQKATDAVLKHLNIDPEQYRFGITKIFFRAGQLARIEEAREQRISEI
Protocol: (a) Concentrations of […] in the range from 1 to 50 μM activate the basal ATPase activity of Dictyostelium myosin-2 with an apparent half maximum activation constant AC50 of 18 μM. At concentrations of KIN-74>50 μM the basal ATPase activity of Dictyostelium myosin-2 is inhibited with IC50=90 μM.
Compounds KIN-74, KIN-77 are activators of myosin-2 function. KIN-74 activates the ATPase activity of Dictyostelium myosin-2 in the absence of actin. ATPase activity is uncoupled from motor activity in this situation. The apparent half-maximum activation constant AC50 corresponds to 18 μM. Uncouplers have potential applications in inhibiting the overcontraction and overextension of cardiac muscles without being accompanied with a cardioinhibitory action. Therefore, compounds derived from KIN-74 have potential applications in the treatment of acute myocardial infarction helping to prevent the necrosis of cardiac muscles.

Dictyostelium myosin-2 [4] = target: T4, Dictyostelium myosin-2 (Dictyostelium discoideum, UniProt P08799, C312Y/S249N); assay: Actin-activated ATPase activity (NADH-coupled assay), Dictyostelium myosin-2; assay type: biochemical; details: 30 μM actin; read-out: IC50, ATPase activity in the presence of actin
T4 construct: comprising amino acids 1-698, 1-765, and 1-839 respectively; made in house
Protocol: Based on the structure of the myosin-2 motor domain with bound PBP, we performed molecular modeling studies to elucidate the specificity of PBP-binding to myosins from different classes. […] To test the predictions from the modeling studies, we determined actin-activated ATPase activities in the presence of 0 to 150 μM PBP with rabbit skeletal myosin-2 heavy meromyosin (HMM), myosin-5a isolated from chicken brain, and recombinant Dictyostelium myosin class-1, 2 and 5 motor-domain constructs (FIG. 9a). […] The concentrations of PBP required for half-maximal inhibition of the different myosin motors was calculated from fitting the data to hyperbolae. […] To determine the extend to which PBP impairs the coupling between the actin- and nucleotide-binding sites of myosin, we measured the ATP turn-over rates of Dictyostelium myosin-2 and myosin-5b motor domain constructs over the range from 0 to 50 μM F-actin in the absence and presence of 25 μM PBP.
Values for the rate of maximum ATP turnover (kcat), the concentration of F-actin at which half-maximal activation is achieved (Kapp), and the apparent second order rate constant for actin binding (kcat/Kapp) were estimated from a fit of the data to a hyperbolic function. kcat/Kapp is a direct measure of the coupling efficiency between actin and nucleotide binding and can be determined from the initial slope at F-actin concentrations much smaller than Kapp. […] ATP turn-over rates of Dictyostelium myosin-2 (◯) and Dictyostelium myosin-5b (▪) at increasing F-actin concentrations in the absence (filled symbols) and presence (open symbols) of 25 μM pentabromopseudilin (FIG. 9b):
Protein preparation. Rabbit fast skeletal muscle heavy meromyosin (HMM) was prepared as described by Kron and Spudich^9. Motor domain constructs of myosin-1E, myosin-2, and myosin-5b from Dictyostelium discoideum comprising amino acids 1-698, 1-765, and 1-839 respectively, were prepared as described previouslyl^10-12. Myosin-5a heavy meromyosin from chicken brain was provided by Dr. T. Scholz (Hannover Medical School, Germany) and F-actin was prepared as described by Lehrer and Kerwar^13.
Steady-state kinetics. Basal and actin-activated Mg^2+-ATPase activities were measured with the NADH-coupled assay^19 in a buffer containing 25 mM HEPES, 25 mM KCl, and 4 mM MgCl2, 0.5 mM DTT at pH 7.0 in the presence of 1 mM ATP at 25° C. PBP was added to the reaction mixture in the absence of nucleotide and incubated for 20 minutes before the reaction was started by the addition of ATP. NADH oxidation was followed using the change in absorption at 340 nm in a Beckman DU-800 spectrophotometer.

T1 sequence (P54697 1-839): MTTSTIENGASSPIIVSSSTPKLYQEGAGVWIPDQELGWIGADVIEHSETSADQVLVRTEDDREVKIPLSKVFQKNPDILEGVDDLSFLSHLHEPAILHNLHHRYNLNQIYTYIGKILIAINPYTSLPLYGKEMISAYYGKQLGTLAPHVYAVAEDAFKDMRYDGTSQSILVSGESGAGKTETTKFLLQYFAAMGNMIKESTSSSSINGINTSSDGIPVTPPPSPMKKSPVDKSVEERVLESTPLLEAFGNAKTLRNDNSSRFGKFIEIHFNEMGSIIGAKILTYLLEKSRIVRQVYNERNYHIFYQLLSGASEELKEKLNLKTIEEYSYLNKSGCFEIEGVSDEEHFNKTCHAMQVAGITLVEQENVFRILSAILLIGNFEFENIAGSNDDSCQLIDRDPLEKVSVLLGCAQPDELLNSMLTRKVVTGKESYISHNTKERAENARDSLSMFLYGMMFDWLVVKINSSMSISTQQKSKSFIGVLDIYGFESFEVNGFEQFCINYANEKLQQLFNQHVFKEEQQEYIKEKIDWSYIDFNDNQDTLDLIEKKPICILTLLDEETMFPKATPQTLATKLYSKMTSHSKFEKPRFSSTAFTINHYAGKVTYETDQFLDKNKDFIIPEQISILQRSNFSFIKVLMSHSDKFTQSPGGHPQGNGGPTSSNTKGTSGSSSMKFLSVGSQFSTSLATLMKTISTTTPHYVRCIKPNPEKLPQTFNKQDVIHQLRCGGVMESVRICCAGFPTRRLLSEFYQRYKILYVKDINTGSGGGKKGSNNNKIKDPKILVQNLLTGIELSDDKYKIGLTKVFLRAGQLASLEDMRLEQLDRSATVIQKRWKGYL
T2 sequence (Q03479 1-698): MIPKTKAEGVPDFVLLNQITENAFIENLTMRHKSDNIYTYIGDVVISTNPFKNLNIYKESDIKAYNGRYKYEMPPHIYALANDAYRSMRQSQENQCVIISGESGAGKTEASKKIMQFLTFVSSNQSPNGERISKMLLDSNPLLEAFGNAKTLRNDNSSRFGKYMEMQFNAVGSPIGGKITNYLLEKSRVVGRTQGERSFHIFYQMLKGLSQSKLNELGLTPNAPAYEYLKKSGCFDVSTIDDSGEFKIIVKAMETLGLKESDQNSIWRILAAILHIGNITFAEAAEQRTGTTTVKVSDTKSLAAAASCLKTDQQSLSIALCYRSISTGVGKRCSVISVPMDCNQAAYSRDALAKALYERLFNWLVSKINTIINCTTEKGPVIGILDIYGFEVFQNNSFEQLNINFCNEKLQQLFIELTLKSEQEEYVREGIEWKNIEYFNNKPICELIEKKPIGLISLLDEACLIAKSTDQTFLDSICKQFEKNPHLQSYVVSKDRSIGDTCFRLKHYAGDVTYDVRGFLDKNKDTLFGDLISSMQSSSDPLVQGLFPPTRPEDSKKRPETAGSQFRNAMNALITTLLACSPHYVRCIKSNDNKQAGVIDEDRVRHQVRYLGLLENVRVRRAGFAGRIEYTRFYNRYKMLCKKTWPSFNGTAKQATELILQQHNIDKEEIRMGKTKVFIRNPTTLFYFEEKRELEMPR

## Oc1c(Cl)cc(Cl)cc1-c1[nH]c(Cl)c(Cl)c1Cl [KIN-68, pentachloropseudilin]
myosin-1 isoforms
  preferred selectivity: fold smaller IC50 compared to fast skeletal muscle myosin-2 and other reference myosins: more than 20 fold
Dictyostelium myosin-5b
  IC50: 105 µM
Dictyostelium myosin-1E
  IC50: 55.8 µM

## Oc1cc(F)c(F)c2c1[nH]c1ccc(F)cc12 [KIN-93]
Plasmodium merozoites
  effect on the blood stages of malaria: reducing the number of Plasmodium merozoites
[1]
  LC50 at 48 h: > 50 µM
Medaka embryos; below 50.0 μM
  lethal effect on medaka embryos: no lethal effect
Medaka embryos; in vivo
  embryonic development: not impaired
In vitro
  CC50 at 4 h: > 50 µM
[2]
  neutral red uptake experiments, defects: do not reveal any defects
Plasmodium sporozoites
  general cytotoxicity for erythrocytes or for Plasmodium sporozoites: No general cytotoxicity
Plasmodium sporozoites; 10 μM
  gliding velocity compared with control parasites: only half as fast
  motility states of the sporozoite population: switched the population to attached and waving states; also recorded: strongly reduced
Plasmodium sporozoites; 0.97 μm/s without inhibitor
  velocity of clockwise (CW) motility: 0.58 μm/s
Plasmodium sporozoites; 1.13 μm/s without inhibitor
  velocity of counterclockwise (CCW) motility: 0.59 μm/s

## Oc1c(F)cc(F)cc1-c1[nH]c(Br)c(Br)c1Br [KIN-74, 2,3,4-tribromo-5 (1′ hydroxy, 2′,4′-difluorophenyl)pyrrole]
Dictyostelium myosin-2 [3]; absence of actin, 1 to 50 μM, read-out: apparent half maximum activation constant AC50, basal ATPase activity
  AC50: 18 µM
Dictyostelium myosin-2 [3]; at concentrations >50 μM
  IC50: 90 µM
Dictyostelium myosin-2 [4]
  IC50: 88.8 µM
